The values below come from patent publication US7442547B2, “Dendritic cells and the uses thereof in screening cellular targets and potential drugs” (Sekmed, S.R.L., priority 2001, dated 2008).

The subject of this series is DC (D1, D8, BMDC/RAG2−/−). The series can be described thus: IL-2 production by DC after stimulation in vitro (IL-2 ELISA of supernatant). Type of series: cell-based, mouse. To be noted: splenic (D1) and bone marrow-derived DC (D8, BMDC/RAG2−/−), long- and short-term lines. The procedure: Antibodies and Reagents. LPS (E. Coli 026:B6, used at 10 μg/ml) and zymosan (used at 10 μg/ml) were obtained from Sigma Chem. (St. Louis, Mo.). rTNF, (San Francisco) and rIL-1. (Genzyme, Cambridge Mass.) were used at 100 U/ml and 10 μg/ml respectively. IFN was kindly provided by Schering-Plough (Dardilli, Fr.) and used at 1000 U/ml. CpG ([…])(SEQ ID NO. 5) and CpG control ([…]) (SEQ ID NO. 6) oligos were purchased from Life Technologies and used at a concentration of 1 µM. PE-conjugated anti-IL-2, PE-conjugated rat Isotype control, biotinilated anti-CD8α and FITC-conjugated anti-CD11c monoclonal antibodies were purchased from Pharmingen. Quantum-red-conjugated streptavidin was obtained from Sigma. Anti-I-A^d/I-E^d mAb (clone M5 /114, rat IgG2b) was kindly provided by Dr. A. Ager (NIMR, London, UK). FITC-conjugated anti-rat was from Jackson ImmunoResearch (West Grove, Pa.). Anti-CD40 antibody [clone FGK45 (10)] was used at a concentration of 20 μg/ml and crosslinked with a monoclonal anti-rat antibody (10 μg/ml, PharMingen).
DC and culture medium. D1 and D8.1 long term DC were cultured in IMDM (Sigma, St. Louis, Mo.) containing 10% heat-inactivated fetal bovine serum (GIBCO), 100 IU penicillin, 100 μg/ml streptomycin, 2 mM L-glutamine (all from Sigma), and 50 μM 2-mercaptoethanol (complete IMDM) with 30% supernatant from R1 medium [supernatant from NIH3T3 fibroblasts transfected with GM-CSF].
Fresh BMDCRAG2−/− were derived from RAG2−/− BALB/c or C57BL/6 bone marrow cells. Usually bone marrow cells cultured for two days and frozen. BMDCRAG2−/− were obtained from defrost cells after 7 days of culture in medium containing 10% of supernatant of GM-CSF transduced B16 tumor cells. BMDCRAG2−/− were used for activation only if they were immature, as judged by low B7.2 and CD40 expression.
IL-2 ELISA. IL-2 ELISA was performed using the DuoSet kit (R and D, Minneapolis, Minn.) and following the manufacturer recommendations. […]

With “CpG: oligo DNA containing the unmethylated CpG motif, TCCATGACGTTCCTGATGCT (SEQ ID NO. 5), recognized by TLR9 (listed as DNA, further chemistry not given here)”, the “induction of IL-2 production/secretion by DC” value was “efficient in stimulating DC to secrete IL-2”.
Regarding IL-1 β: inflammatory cytokine (Genzyme), the “induction of IL-2 production/secretion by DC” value is reported as “none of the inflammatory cytokines, used individually or added simultaneously to DC cultures, were able to promote IL-2 secretion”.
